Laboratory results reported in patent publication US11597703B2, “Caspase inhibitors and methods of use thereof” (Histogen Inc., priority 2019, dated 2023).

Assays:
IL-1β = assay: Inhibition of LPS-stimulated IL-1β in THP-1 cells (ELISA); type: cell-based, human; settings: Homo sapiens, 10 micromolar, read-out: Percent Inhibition of IL1-β
Description: Compounds in the present invention were tested in THP-1 cells, a human monocyte cell line, to assess the inhibition of the inflammatory cytokine IL-1β. THP-1 cells (ATCC TIB-202) were grown in culture and seeded in 96 well plates at a concentration of 200,000 cells per well with a total volume of 150 μL. Plated cells were incubated overnight at 37 degrees C. under an atmosphere of 5% CO2. Media was removed from cells which were washed with PBS. Test compounds were diluted in DMSO stock solution and serially diluted appropriately for initial screening and IC50 determinations. LPS in serum free media (140 μL of […]) was added to each well to stimulate IL-1β production. IL-1β was measured by ELISA assay kit (R&D Systems) per the manufacturers instructions.
IC50 values for the inhibition of IL-1 in THP 1 cells were determined from dose response studies.

Caspase-3 = biological target: T1, Caspase-3 (Homo sapiens, UniProt P42574); assay: Caspase-3 enzymatic inhibition assay, IC50; type: biochemical; settings: read-out: Caspase 3 enzyme inhibition IC50
T1 construct: purchased Enzo Biosciences
T1 sequence (P42574 29-175 limits assumed): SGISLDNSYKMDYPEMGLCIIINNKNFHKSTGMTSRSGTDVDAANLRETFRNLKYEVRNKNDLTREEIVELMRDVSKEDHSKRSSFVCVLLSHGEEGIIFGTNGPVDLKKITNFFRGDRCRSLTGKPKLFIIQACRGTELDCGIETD
T1 sequence (P42574 176-277 limits assumed): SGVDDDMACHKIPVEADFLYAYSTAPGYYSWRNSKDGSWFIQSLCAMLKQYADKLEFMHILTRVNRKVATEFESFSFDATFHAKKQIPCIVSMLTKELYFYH
In short: (§1)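 Following manufacturer-specified conditions, enzymatic activity of purchased human caspase-3, -6 and -7 was measured with compound present to obtain IC50s.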

Caspase 6 = biological target: T2, Caspase 6 (Homo sapiens, UniProt P55212); assay: Caspase 6 enzymatic inhibition assay, IC50; type: biochemical; settings: read-out: Caspase 6 enzyme inhibition IC50
T2 construct: purchased Enzo Biosciences
T2 sequence (P55212 24-179 limits assumed): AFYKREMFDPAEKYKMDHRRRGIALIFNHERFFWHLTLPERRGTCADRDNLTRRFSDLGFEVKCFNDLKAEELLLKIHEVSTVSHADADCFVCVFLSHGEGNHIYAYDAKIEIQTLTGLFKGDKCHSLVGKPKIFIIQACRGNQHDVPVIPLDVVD
T2 sequence (P55212 194-293 limits assumed): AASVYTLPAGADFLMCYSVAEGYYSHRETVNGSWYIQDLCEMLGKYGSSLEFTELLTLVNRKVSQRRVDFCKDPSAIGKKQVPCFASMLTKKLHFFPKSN
In short: as §1

Caspase 7 = biological target: T3, Caspase 7 (Homo sapiens, UniProt P55210); assay: Caspase 7 enzymatic inhibition assay, IC50; type: biochemical; settings: read-out: Caspase 7 enzyme inhibition IC50
T3 construct: purchased Enzo Biosciences
T3 sequence (P55210 24-198 limits assumed): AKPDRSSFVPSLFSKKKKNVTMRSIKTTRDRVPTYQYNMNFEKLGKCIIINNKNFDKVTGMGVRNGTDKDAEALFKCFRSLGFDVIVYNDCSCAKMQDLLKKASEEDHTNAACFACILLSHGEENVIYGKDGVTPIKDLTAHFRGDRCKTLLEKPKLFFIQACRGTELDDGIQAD
T3 sequence (P55210 207-303 limits assumed): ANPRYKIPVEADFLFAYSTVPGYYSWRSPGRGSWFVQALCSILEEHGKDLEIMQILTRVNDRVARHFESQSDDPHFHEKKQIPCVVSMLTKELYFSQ
In short: as §1

Caspase-1 = biological target: T4, Caspase-1 (Homo sapiens, UniProt P29466); assay: Caspase-1 enzyme inhibition assay (Ac-YVAD-pNA substrate), IC50; type: biochemical
T4 construct: purchased Enzo Biosciences
T4 sequence (P29466 120-297 limits assumed): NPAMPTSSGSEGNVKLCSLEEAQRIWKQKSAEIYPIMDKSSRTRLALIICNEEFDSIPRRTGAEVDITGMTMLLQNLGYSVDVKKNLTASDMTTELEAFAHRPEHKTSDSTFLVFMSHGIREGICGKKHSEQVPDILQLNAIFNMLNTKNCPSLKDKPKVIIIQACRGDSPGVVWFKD
T4 sequence (P29466 317-404 limits assumed): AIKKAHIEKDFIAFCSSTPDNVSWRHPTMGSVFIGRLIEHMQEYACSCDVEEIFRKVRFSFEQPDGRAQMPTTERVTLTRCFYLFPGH
In short: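 Buffer was 50 mM HEPES pH 7.4, 100 mM NaCl, 0.1% CHAPS, 1 mM EDTA, 10% glycerol and 10 mM DTT. Caspase-1 was reacted with 200 μM Ac-YVAD-pNA (final). Release of p-nitroaniline was followed continuously at 405 nm, and rates were taken from the linear slope (ε 10,500 M-1 cm-1).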

Jurkat cells = assay: Prevention of Fas-induced apoptosis in Jurkat cells (WST-8); type: cell-based; settings: Homo sapiens, 10 micromolar, read-out: % Prevention of Fas - induced Jurkat cell apoptosis at 10 micromolar
Description: Compounds of the present invention were evaluated in Jurkat cells, a human T-lymphocyte cell line, to evaluate compounds ability to inhibit apoptotic cell death. Jurkat cells, Clone E6-1 (ATCC TIB-152) were grown in culture maintain a cell density between 0.5-2 million cells/mL. Cells were tested for viability and countion with typan blue stain before use. Test compounds were addedd to 96 well plates and Jurkat cells were added at a concentration of approximately 100,000 cells per well and mixed thoroughly by action of pipetting. Plated cells were incubated for 1 hour at 37 degrees C. under an atmosphere of 5% CO2. Anti-Fas antibody was added and mixed by pipet action. Plates were incubated for 20 hours at 37 degrees C. under an atmosphere of 5% CO2. 10 microliters of thawed WST-8 solution was added to each well and incubated for 4 hours. Absorbance was measured at 450 nm and control reading at […] using a SpectraMax ID5 plate reader. Apoptotic cell death is executed by caspases 3, 7 and 6. Compounds that lack activity against these caspases will not prevent the death of Jurkat cells and is a functional test of selectivity for inflammatory over apoptotic caspases.
IC50 values to protect against Fas induced apoptosis and improve survival of Jurkat cells were determined from dose response studies.

SMILES	inhibition at 10 µM (IL-1β) [%]	IC50 (Caspase-3) [nM]	IC50 (Caspase 6) [nM]	IC50 (Caspase 7) [nM]	IC50 (Caspase-1) [nM]	inhibition at 10 µM (Jurkat cells) [%]
CC(C)(NC(=O)C(=O)Nc1c(F)cccc1F)C(=O)N[C@@H](CCC(=O)O)C(=O)COc1c(F)c(F)cc(F)c1F [Example 12, (S)-4-(2-(2-((2,6-Difluorophenyl)amino)-2-oxoacetamido)-2-methylpropanamido)-5-oxo-6-(2,3,5,6-tetrafluorophenoxy)hexanoic acid]	> 90	≥ 1000	≥ 1000	≥ 1000	≤ 10	≤ 10
C[C@H](NC(=O)C(=O)Nc1c(F)cccc1F)C(=O)N[C@@H](CCCC(=O)O)C(=O)COc1c(F)c(F)cc(F)c1F [Example 13, (S)-5-((S)-2-(2-((2,6-Difluorophenyl)amino)-2-oxoacetamido)propanamido)-6-oxo-7-(2,3,5,6-tetrafluorophenoxy)heptanoic acid]	50 to 90	≥ 1000	≥ 1000	≥ 1000	10 to 100	≤ 10
O=C(O)CC[C@H](NC(=O)C1(NC(=O)C(=O)Nc2c(F)cccc2F)CCCC1)C(=O)COc1c(F)c(F)cc(F)c1F [Example 14, (S)-4-(1-(2-((2,6-Difluorophenyl)amino)-2-oxoacetamido)cyclopentane-1-carboxamido)-5-oxo-6-(2,3,5,6-tetrafluorophenoxy)hexanoic acid]	> 90	100 to 1000	100 to 1000	100 to 1000	≤ 10	≤ 10
C[C@H](NC(=O)C(=O)Nc1c(F)cccc1F)C(=O)N[C@@H](CCC(=O)O)C(=O)COc1ccnc(C(F)(F)F)n1 [Example 15, (S)-4-((S)-2-(2-((2,6-Difluorophenyl)amino)-2-oxoacetamido)propanamido)-5-oxo-6-((2-(trifluoromethyl)pyrimidin-4-yl)oxy)hexanoic acid]	> 90	≥ 1000	≥ 1000	≥ 1000	≤ 10	≤ 10
O=C(O)CC[C@H](NC(=O)Cn1ccc2ccc(Cl)cc2c1=O)C(=O)COc1c(F)c(F)cc(F)c1F [Example 16, (S)-4-(2-(7-Chloro-1-oxoisoquinolin-2(1H)-yl)acetamido)-5-oxo-6-(2,3,5,6-tetrafluorophenoxy)hexanoic acid]	> 90	≥ 1000	≥ 1000	≥ 1000	≤ 10	≤ 10
C[C@H](NC(=O)C(=O)Nc1ccc(F)cc1)C(=O)N[C@@H](CCC(=O)O)C(=O)COc1c(F)c(F)cc(F)c1F [Example 17, (S)-4-((S)-2-(2-((4-fluorophenyl)amino)-2-oxoacetamido)propanamido)-5-oxo-6-(2,3,5,6-tetrafluorophenoxy)hexanoic acid]	> 90	≥ 1000	≥ 1000	≥ 1000	≤ 10	≤ 10
C[C@H](NC(=O)C(=O)Nc1cccc(F)c1)C(=O)N[C@@H](CCC(=O)O)C(=O)COc1c(F)c(F)cc(F)c1F [Example 18, (S)-4-((S)-2-(2-((3fluorophenyl)amino)-2-oxoacetamido)propanamido)-5-oxo-6-(2,3,5,6-tetrafluorophenoxy)hexanoic acid]	> 90	≥ 1000	≥ 1000	≥ 1000	≤ 10	≤ 10
Cc1ccc(NC(=O)C(=O)N[C@@H](C)C(=O)N[C@@H](CCC(=O)O)C(=O)COc2c(F)c(F)cc(F)c2F)cc1 [Example 19, (S)-4-((S)-2-(2-((4-methylphenyl)amino)-2-oxoacetamido)propanamido)-5-oxo-6-(2,3,5,6-tetrafluorophenoxy)hexanoic acid]	> 90	≥ 1000	≥ 1000	≥ 1000	≤ 10	≤ 10
Cc1cccc(NC(=O)C(=O)N[C@@H](C)C(=O)N[C@@H](CCC(=O)O)C(=O)COc2c(F)c(F)cc(F)c2F)c1 [Example 20, (S)-4-((S)-2-(2-((3-methylphenyl)amino)-2-oxoacetamido)propanamido)-5-oxo-6-(2,3,5,6-tetrafluorophenoxy)hexanoic acid]	> 90	≥ 1000	≥ 1000	≥ 1000	≤ 10	≤ 10
